Test in all cases: Test A preemergence
Assay type in all cases: in vivo

The subject of one assay is Kochia (Kochia scoparia). Conditions: Bassia scoparia, pre-emergence, 240 h; for pest or weed control at 125 g/ha: 125 g ai/ha; for pest or weed control at 500 g/ha: 500 g ai/ha. In outline: (§1)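 Each rating is a visual injury score from 0 to 100 given about 10 d after treatment, judged against untreated controls kept alongside in the greenhouse. In loam soil–sand blend, seeds got a preemergence directed soil spray, while postemergence plants were 2 to 10 cm tall at spraying.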

The test system of assay [1] is barnyardgrass (Echinochloa crus-galli). The note with it: Echinochloa crus-galli, pre-emergence, 240 h; for pest or weed control at 125 g/ha: 125 g ai/ha; for pest or weed control at 500 g/ha: 500 g ai/ha. The method in brief:
as §1

The test system of assay [2] is pigweed (Amaranthus retroflexus). The note with it: Amaranthus retroflexus, pre-emergence, 240 h; for pest or weed control at 125 g/ha: 125 g ai/ha; for pest or weed control at 500 g/ha: 500 g ai/ha.
For assay [3], the system named is ragweed (common ragweed, Ambrosia elatior). The note with it: Ambrosia artemisiifolia, pre-emergence, 240 h; for pest or weed control at 125 g/ha: 125 g ai/ha; for pest or weed control at 500 g/ha: 500 g ai/ha. The method in brief: as §1
The test system of assay [4] is ryegrass, Italian (Italian ryegrass, Lolium multiflorum). The note with it: Lolium multiflorum, pre-emergence, 240 h; for pest or weed control at 500 g/ha: 500 g ai/ha; for pest or weed control at 125 g/ha: 125 g ai/ha. In outline:
as §1

[5] abbreviates: Preemergence, visual injury rating after approximately 10 d, read-out: Kochia plant response rating (0 to 100 scale, 0 is no effect, 100 is complete control).
Where [6] appears, read: preemergence, visual injury rating about 10 d after treatment, 0 to 100 scale (0 no effect, 100 complete control), read-out: Kochia plant response rating.
Setting [7] is: Preemergence, visual injury rating after approximately 10 d, read-out: Barnyardgrass plant response rating (0 to 100 scale, 0 is no effect, 100 is complete control).
Where [8] appears, read: preemergence, visual injury rating about 10 d after treatment, 0 to 100 scale (0 no effect, 100 complete control), read-out: Barnyardgrass plant response rating.
[9] abbreviates: Preemergence, visual injury rating after approximately 10 d, read-out: Pigweed plant response rating (0 to 100 scale, 0 is no effect, 100 is complete control).
[10] abbreviates: preemergence, visual injury rating about 10 d after treatment, 0 to 100 scale (0 no effect, 100 complete control), read-out: Pigweed plant response rating.
[11] abbreviates: preemergence, visual injury rating about 10 d after treatment, 0 to 100 scale (0 no effect, 100 complete control), read-out: Ragweed plant response rating.
Where [12] appears, read: preemergence, visual injury rating about 10 d after treatment, 0 to 100 scale (0 no effect, 100 complete control), read-out: Ryegrass, Italian plant response rating.
Where [13] appears, read: preemergence, 0 to 100 scale where 0 is no effect and 100 is complete control, read-out: Kochia plant response rating.
Setting [14] is: preemergence, 0 to 100 scale where 0 is no effect and 100 is complete control, read-out: Barnyardgrass plant response rating.
[15] abbreviates: preemergence, 0 to 100 scale where 0 is no effect and 100 is complete control, read-out: Pigweed plant response rating.
The mark [16] stands for this setting: preemergence, 0 to 100 scale where 0 is no effect and 100 is complete control, read-out: Ragweed plant response rating.
The mark [17] stands for this setting: preemergence, 0 to 100 scale where 0 is no effect and 100 is complete control, read-out: Ryegrass, Italian plant response rating.
Setting [18] is: preemergence, 0 to 100 scale where 0 is no effect and 100 is complete control, approx. 10 d, read-out: Kochia plant response rating.
The mark [19] stands for this setting: preemergence, 0 to 100 scale where 0 is no effect and 100 is complete control, approx. 10 d, read-out: Barnyardgrass plant response rating.
[20] abbreviates: preemergence, 0 to 100 scale where 0 is no effect and 100 is complete control, approx. 10 d, read-out: Pigweed plant response rating.
Where [21] appears, read: preemergence, 0 to 100 scale where 0 is no effect and 100 is complete control, approx. 10 d, read-out: Ragweed plant response rating.
Where [22] appears, read: preemergence, 0 to 100 scale where 0 is no effect and 100 is complete control, approx. 10 d, read-out: Ryegrass, Italian plant response rating.

The structures appear in SMILES notation. Read-outs that look alike come from different tables or passages of the source.

As for `Cc1ccc([C@H]2CNC(=O)[C@@H]2C(=O)Nc2cccc(F)c2C)cc1C` [Compound 1035], the pest or weed control at 125 g/ha in the assay on Kochia (Kochia scoparia) (setting [5]) turned out to be 0%; in assay [1] (setting [7]), 90%; in assay [2] (setting [9]), 0%; in assay [3] (Preemergence, visual injury rating after approximately 10 d, read-out: Ragweed plant response rating (0 to 100 scale, 0 is no effect, 100 is complete control)) it was 20%. The pest or weed control at 500 g/ha was found to be 50% in the assay on Kochia (Kochia scoparia) (setting [6]); 90% in assay [1] (setting [8]); 0% in assay [2] (setting [10]); 70% in assay [3] (setting [11]); 70% in assay [4] (setting [12]).

For `CSc1ccccc1NC(=O)[C@H]1C(=O)N(C)C[C@@H]1c1ccc(C(F)(F)F)nc1` [Compound 1198], the pest or weed control at 125 g/ha was 80% with Kochia (Kochia scoparia) (preemergence, visual injury rating, 0 to 100 scale where 0 is no effect and 100 is complete control, approximately 10 d, read-out: Kochia plant response rating); 70% in assay [1] (preemergence, visual injury rating, 0 to 100 scale where 0 is no effect and 100 is complete control, approximately 10 d, read-out: Barnyardgrass plant response rating); 70% in assay [2] (preemergence, visual injury rating, 0 to 100 scale where 0 is no effect and 100 is complete control, approximately 10 d, read-out: Pigweed plant response rating); 70% in assay [3] (preemergence, visual injury rating, 0 to 100 scale where 0 is no effect and 100 is complete control, approximately 10 d, read-out: Ragweed plant response rating); 30% in assay [4] (preemergence, visual injury rating, 0 to 100 scale where 0 is no effect and 100 is complete control, approximately 10 d, read-out: Ryegrass, Italian plant response rating). The pest or weed control at 500 g/ha in the assay on Kochia (Kochia scoparia) (setting [13]) was 80%; in assay [1] (setting [14]), 100%; in assay [2] (setting [15]), 100%; in assay [3] (setting [16]) it was 100%; in assay [4] (setting [17]), 60%.

`CCc1cc(CC)cc([C@H]2CNC(=O)[C@@H]2C(=O)Nc2ccccc2F)c1` [Compound 1138]: the pest or weed control at 125 g/ha with Kochia (Kochia scoparia) (setting [18]) was 0%; in assay [1] (setting [19]), 90%; in assay [2] (setting [20]) it was 0%; in assay [3] (setting [21]), 0%; in assay [4] (setting [22]), 30%. The pest or weed control at 500 g/ha in the assay with Kochia (Kochia scoparia) (setting [13]) turned out to be 80%; in assay [1] (setting [14]), 90%; in assay [2] (setting [15]), 0%; in assay [3] (setting [16]), 0%; in assay [4] (setting [17]) it was 50%.

For `CC(C)Oc1ccc([C@H]2CNC(=O)[C@@H]2C(=O)Nc2cccc(F)c2F)cc1` [Compound 1136], the pest or weed control at 125 g/ha in the assay with Kochia (Kochia scoparia) (setting [18]) was found to be 0%; in assay [1] (setting [19]) it was 30%; in assay [2] (setting [20]), 0%; in assay [3] (setting [21]), 0%; in assay [4] (setting [22]) it was 0%. Also, the pest or weed control at 500 g/ha in the assay with Kochia (Kochia scoparia) (setting [13]) amounted to 80%; in assay [1] (setting [14]), 90%; in assay [2] (setting [15]) it was 0%; in assay [3] (setting [16]) it was 0%; in assay [4] (setting [17]), 30%.

Consider `N#Cc1cccc(NC(=O)[C@H]2C(=O)NC[C@@H]2c2cccc(C(F)(F)F)c2)c1F` [Compound 829], for which the pest or weed control at 125 g/ha in the assay on Kochia (Kochia scoparia) (setting [13]) is 60%; in assay [1] (setting [14]) it was 90%; in assay [2] (setting [15]), 0%; in assay [3] (setting [16]) it was 30%; in assay [4] (setting [17]) it was 20%. Moreover, the pest or weed control at 500 g/ha in the assay on Kochia (Kochia scoparia) (Preemergence, visual injury vs untreated controls after approximately 10 d, read-out: Kochia plant response rating (0 to 100 scale where 0 is no effect and 100 is complete control)) was found to be 90%; in assay [1] (Preemergence, visual injury vs untreated controls after approximately 10 d, read-out: Barnyardgrass plant response rating (0 to 100 scale where 0 is no effect and 100 is complete control)), 90%; in assay [2] (Preemergence, visual injury vs untreated controls after approximately 10 d, read-out: Pigweed plant response rating (0 to 100 scale where 0 is no effect and 100 is complete control)) it was 60%; in assay [3] (Preemergence, visual injury vs untreated controls after approximately 10 d, read-out: Ragweed plant response rating (0 to 100 scale where 0 is no effect and 100 is complete control)) it was 70%; in assay [4] (Preemergence, visual injury vs untreated controls after approximately 10 d, read-out: Ryegrass, Italian plant response rating (0 to 100 scale where 0 is no effect and 100 is complete control)), 40%.

For `O=C1NC[C@H](c2cscn2)[C@H]1C(=O)Nc1cccc(F)c1F` [Compound 1111], the pest or weed control at 125 g/ha (with Kochia (Kochia scoparia) (setting [18]); in assay [1] (setting [19]); in assay [2] (setting [20]); in assay [3] (setting [21]); in assay [4] (setting [22])) was 0% each time. Besides, the pest or weed control at 500 g/ha in the assay with Kochia (Kochia scoparia) (setting [13]) was found to be 0%; in assay [1] (setting [8]), 0%; in assay [2] (setting [15]), 0%; in assay [3] (setting [16]) it was 0%; in assay [4] (setting [17]), 20%.

Take `Cc1cc([C@H]2CNC(=O)[C@@H]2C(=O)Nc2cccc(F)c2F)ccc1C(F)(F)F` [Compound 1040]: the pest or weed control at 125 g/ha in the assay on Kochia (Kochia scoparia) (setting [5]) stood at 50%; in assay [1] (setting [7]), 90%; in assay [2] (setting [9]), 30%; in assay [4] (Preemergence, visual injury rating after approximately 10 d, read-out: Ryegrass, Italian plant response rating (0 to 100 scale, 0 is no effect, 100 is complete control)) it was 50%. For the same compound, the pest or weed control at 500 g/ha in the assay on Kochia (Kochia scoparia) (setting [6]) worked out at 80%; in assay [1] (setting [8]) it was 90%; in assay [2] (setting [10]), 40%; in assay [3] (setting [11]), 80%; in assay [4] (setting [12]) it was 50%.

Values taken from US12077503B2, “Substituted cyclic amides and their use as herbicides” (FMC CORPORATION, priority 2015, dated 2024).
